Source: publication PMC2946083 (Bioorganic & medicinal chemistry letters, 2010)

Key:
A1 AR = biological target: T1, A1 AR (Homo sapiens, UniProt P30542); assay: Radioligand binding at human A1 AR
T1 sequence (P30542 1-326): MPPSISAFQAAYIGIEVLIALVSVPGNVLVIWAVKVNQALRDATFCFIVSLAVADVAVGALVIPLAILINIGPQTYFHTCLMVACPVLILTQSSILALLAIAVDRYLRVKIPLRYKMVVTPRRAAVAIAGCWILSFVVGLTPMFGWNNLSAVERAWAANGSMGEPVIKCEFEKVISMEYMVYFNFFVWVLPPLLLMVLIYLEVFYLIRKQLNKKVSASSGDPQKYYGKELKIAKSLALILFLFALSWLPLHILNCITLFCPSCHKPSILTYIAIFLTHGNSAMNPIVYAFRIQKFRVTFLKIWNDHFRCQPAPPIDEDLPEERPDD

A2A AR = A2A AR (Homo sapiens, UniProt P29274); assay: Radioligand binding at human A2A AR; conditions: A2A vs A1 and A3 ARs
Sequence of A2A AR (P29274 whole entry): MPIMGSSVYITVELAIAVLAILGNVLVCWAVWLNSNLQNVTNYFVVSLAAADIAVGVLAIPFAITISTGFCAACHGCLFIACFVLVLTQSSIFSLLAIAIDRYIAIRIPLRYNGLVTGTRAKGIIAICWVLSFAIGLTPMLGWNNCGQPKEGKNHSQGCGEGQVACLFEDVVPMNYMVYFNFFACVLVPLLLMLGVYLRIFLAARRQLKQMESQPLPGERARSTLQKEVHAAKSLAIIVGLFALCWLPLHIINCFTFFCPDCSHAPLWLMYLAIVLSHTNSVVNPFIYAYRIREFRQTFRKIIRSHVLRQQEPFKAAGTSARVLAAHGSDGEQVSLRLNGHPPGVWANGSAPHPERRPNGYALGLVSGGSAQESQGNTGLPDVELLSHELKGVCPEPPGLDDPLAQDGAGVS

## Nc1nc2c(cnn2CCCc2ccc(OCCF)cc2)c2nc(-c3ccco3)nn12 [Compound 5]
A1 AR
  Ki: ~10 µM
A2A AR
  Selectivity for the A2A AR in comparison to the A1 and A3 ARs: highly selective
